Measurements taken from patent US20230265098A1, “ALKYNE QUINAZOLINE DERIVATIVES AS INHIBITORS OF ERBB2” (EnLiven Therapeutics, Inc., priority 2020, published 2023).

Experiments:
Ba/F3 EGFR wt = target: T1, Ba/F3 EGFR wt (Homo sapiens, UniProt P00533); experiment: Cell viability assay (CellTiter Glo); type: cell-based, mouse; settings: 72 hours; 3000 cells per well, 96-well plates; read-out: Cell viability IC50, nM, Ba/F3 EGFR wt
T1 construct: Ba/F3 cell lines were engineered to express human ERBB2 or EGFR kinases, rendering the cells IL-3 independent
T1 sequence (P00533 whole entry, change not shown): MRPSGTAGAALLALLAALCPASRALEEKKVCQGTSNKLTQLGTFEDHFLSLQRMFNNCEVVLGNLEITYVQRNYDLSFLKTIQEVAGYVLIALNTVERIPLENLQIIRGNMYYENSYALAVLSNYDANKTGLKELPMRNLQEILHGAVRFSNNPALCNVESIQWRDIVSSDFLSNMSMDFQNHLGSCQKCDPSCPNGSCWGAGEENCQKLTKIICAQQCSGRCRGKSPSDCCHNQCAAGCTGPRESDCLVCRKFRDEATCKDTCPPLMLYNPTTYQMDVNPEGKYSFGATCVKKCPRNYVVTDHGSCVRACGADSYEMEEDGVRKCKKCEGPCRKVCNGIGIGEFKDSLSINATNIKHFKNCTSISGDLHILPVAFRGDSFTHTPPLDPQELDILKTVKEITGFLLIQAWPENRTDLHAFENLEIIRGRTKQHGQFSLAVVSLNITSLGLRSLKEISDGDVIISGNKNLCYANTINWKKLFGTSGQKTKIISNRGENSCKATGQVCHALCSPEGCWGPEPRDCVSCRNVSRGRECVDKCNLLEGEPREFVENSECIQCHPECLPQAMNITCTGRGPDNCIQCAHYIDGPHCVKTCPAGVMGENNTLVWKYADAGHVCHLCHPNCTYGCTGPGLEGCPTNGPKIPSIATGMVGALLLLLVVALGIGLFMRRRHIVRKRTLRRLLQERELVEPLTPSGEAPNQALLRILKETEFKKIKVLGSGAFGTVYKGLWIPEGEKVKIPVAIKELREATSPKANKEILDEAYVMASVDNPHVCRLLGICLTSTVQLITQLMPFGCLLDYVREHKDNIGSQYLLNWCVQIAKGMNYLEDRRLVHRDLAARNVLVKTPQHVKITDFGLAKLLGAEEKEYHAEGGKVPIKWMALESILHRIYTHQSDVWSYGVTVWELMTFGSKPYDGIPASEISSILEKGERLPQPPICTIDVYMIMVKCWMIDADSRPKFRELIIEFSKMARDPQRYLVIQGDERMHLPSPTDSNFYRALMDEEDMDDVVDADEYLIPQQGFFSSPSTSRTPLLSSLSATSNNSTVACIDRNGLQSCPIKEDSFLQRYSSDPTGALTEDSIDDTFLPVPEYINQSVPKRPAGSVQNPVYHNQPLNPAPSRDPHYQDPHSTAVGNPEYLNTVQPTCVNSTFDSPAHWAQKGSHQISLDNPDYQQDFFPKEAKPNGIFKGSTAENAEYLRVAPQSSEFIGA
Summary of the method: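 Murine Ba/F3 cells made IL-3-independent by retroviral human EGFR or ERBB2 were seeded at 3000 or 300 cells per well and exposed to serially diluted compound (DMSO ≤0.1%) for 72 hours at 37° C, 5% CO2. CellTiter Glo luminescence was normalised to DMSO and media-only controls and fitted to a sigmoidal dose-response.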

[1] = target: T2, phosphorylated ERBB2 (pERBB2) (Homo sapiens, UniProt P04626); experiment: Detection of phosphorylated ERBB2 (pERBB2) by ELISA in BT-474 cells; type: cell-based; settings: four hours incubation with compound, OD 450 nm
T2 construct: endogenous in cells; host or cells: BT-474
T2 sequence (P04626 23-1255): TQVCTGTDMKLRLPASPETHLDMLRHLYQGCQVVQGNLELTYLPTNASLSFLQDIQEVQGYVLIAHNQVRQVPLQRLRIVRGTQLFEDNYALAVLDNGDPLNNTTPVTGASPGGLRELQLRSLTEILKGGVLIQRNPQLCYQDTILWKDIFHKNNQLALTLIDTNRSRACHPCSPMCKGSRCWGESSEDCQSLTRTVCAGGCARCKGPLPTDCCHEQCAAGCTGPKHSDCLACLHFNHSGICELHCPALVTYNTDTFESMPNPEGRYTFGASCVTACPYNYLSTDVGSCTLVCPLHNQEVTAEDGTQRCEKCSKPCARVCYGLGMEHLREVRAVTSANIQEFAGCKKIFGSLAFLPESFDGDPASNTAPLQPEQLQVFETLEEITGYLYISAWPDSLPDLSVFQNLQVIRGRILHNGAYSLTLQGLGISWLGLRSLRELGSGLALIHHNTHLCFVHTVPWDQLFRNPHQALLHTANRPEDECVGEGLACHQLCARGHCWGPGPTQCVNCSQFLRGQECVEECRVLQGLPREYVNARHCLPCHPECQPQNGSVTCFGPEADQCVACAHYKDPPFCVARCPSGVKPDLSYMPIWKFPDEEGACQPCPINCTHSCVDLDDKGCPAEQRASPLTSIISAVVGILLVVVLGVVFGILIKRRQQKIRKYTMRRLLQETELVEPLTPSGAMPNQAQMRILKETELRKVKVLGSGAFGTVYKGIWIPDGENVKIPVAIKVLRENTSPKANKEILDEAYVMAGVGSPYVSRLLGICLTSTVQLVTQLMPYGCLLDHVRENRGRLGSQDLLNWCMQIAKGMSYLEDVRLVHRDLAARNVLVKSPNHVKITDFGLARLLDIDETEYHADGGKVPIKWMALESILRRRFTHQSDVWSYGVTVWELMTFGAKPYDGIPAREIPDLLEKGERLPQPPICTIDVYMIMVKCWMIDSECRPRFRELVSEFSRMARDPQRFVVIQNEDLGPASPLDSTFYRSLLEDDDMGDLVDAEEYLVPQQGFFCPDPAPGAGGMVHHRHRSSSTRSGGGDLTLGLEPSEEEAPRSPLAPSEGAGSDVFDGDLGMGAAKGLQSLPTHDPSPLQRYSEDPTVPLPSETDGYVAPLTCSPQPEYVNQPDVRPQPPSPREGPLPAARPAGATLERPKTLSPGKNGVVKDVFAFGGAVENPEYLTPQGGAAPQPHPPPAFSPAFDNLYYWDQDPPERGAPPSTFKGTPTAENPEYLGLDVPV
Summary of the method: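 BT-474 cells were treated for 4 h at 37 °C with four-fold compound dilutions from 10 μM to 0.01 nM final, then lysed. Phospho-ERBB2 in the lysates was measured by ELISA with TMB read-out at 450 nm. Relative activity was normalised between cell-free wells and 0.1% DMSO-treated cells.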

ERBB2 (V777L) = ERBB2 (V777L) (Homo sapiens, UniProt P04626, V777L); experiment: Reaction Biology kinase activity assay (33P-ATP, HotSpot); type: biochemical; settings: final enzyme concentration 40 nM; 100 μM 33P-ATP; 20 min preincubation, 2 hours at 25° C.
Chain of ERBB2 (V777L) (P04626 23-1255 V777L): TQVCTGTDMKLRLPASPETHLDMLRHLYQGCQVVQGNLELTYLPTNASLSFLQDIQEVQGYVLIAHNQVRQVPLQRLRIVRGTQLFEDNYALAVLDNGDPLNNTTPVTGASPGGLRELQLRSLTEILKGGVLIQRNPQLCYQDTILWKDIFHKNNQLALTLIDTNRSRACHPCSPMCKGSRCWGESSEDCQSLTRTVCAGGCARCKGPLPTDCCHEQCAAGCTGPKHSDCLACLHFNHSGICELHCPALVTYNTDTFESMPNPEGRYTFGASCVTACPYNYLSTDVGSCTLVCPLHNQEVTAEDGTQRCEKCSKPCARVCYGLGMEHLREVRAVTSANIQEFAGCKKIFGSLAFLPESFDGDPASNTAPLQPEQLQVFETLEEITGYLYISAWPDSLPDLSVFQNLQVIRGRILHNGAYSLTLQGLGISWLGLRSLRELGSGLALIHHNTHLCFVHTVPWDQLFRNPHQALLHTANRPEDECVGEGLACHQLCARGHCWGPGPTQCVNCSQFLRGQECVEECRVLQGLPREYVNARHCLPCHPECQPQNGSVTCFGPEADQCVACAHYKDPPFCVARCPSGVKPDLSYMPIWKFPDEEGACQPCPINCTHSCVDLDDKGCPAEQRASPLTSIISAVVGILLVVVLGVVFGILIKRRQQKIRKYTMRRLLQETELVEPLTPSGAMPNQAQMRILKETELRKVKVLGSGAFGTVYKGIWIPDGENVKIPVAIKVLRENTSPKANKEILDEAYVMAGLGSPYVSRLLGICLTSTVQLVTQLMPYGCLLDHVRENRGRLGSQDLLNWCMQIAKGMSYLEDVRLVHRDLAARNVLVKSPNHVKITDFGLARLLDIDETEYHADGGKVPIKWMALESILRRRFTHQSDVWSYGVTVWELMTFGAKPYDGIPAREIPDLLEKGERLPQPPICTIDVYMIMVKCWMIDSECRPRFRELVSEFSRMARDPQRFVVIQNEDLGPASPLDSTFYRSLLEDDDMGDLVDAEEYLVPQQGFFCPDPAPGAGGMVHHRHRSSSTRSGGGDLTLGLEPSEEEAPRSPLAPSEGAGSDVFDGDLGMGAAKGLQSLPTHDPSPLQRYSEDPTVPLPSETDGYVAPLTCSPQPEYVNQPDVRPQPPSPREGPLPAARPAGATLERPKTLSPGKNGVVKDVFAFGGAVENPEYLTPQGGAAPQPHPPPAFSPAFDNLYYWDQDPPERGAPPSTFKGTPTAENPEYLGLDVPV
Experimental: (§1) Inhibition of kinase activity was assessed using a kinase activity assay (Anastassiadis, T. et al. Nat Biotechnol 2011 29: 1039-1045). In particular, substrate (poly Glu-Tyr sodium salt (Sigma Aldrich, cat #P7244)) was freshly prepared in reaction buffer (20 mM Hepes (pH 7.5), 10 mM MgCl2, 1 mM EGTA, 0.02% Brij35, 0.02 mg/ml BSA, 0.1 mM Na3VO4, 2 mM DTT, 1% DMSO). EGFR, ERBB2 or ERBB2 mutant kinases were added to the substrate solution and mixed at the final concentrations in Table B1, below. Compounds were dissolved in 100% DMSO and the resulting solutions were added to the kinase reaction mixture. The kinase reaction mixture was incubated with the compounds for 20 minutes at room temperature. 100 μM ^33P-ATP (Specific activity 10 μCi/μl) was then added to initiate the reaction. This mixture was incubated for 2 hours at 25° C.
(§2) Reactions were spotted onto P81 ion exchange filter paper (Whatman). Unbound phosphate was removed by extensive washing of filters in 0.75% phosphoric acid. Radioactivity was detected using a HotSpot, a proprietary technology of Reaction Biology Corporation (Anastassiadis, T. et al., Nat Biotechnol. 2011 29(11):1039-45). Kinase activity data were expressed as the percentage kinase activity remaining in test samples relative to vehicle only (i.e., DMSO only) control reactions. IC50 values and curve fits were obtained using Prism (GraphPad Software), using a nonlinear regression model with a sigmoidal dose response and are shown in Table B1.

ERBB2 (D769Y) = ERBB2 (D769Y) (Homo sapiens, UniProt P04626, D769Y); experiment: as above; type: biochemical; settings: final enzyme concentration 15 nM; 100 μM 33P-ATP; 20 min preincubation, 2 hours at 25° C.
Experimental: as §1, §2

ERBB2 (P1170A) = ERBB2 (P1170A) (Homo sapiens, UniProt P04626, P1170A); experiment: as above; type: biochemical; settings: final enzyme concentration 20 nM; 100 μM 33P-ATP; 20 min preincubation, 2 hours at 25° C.
Chain of ERBB2 (P1170A) (P04626 23-1255 P1170A): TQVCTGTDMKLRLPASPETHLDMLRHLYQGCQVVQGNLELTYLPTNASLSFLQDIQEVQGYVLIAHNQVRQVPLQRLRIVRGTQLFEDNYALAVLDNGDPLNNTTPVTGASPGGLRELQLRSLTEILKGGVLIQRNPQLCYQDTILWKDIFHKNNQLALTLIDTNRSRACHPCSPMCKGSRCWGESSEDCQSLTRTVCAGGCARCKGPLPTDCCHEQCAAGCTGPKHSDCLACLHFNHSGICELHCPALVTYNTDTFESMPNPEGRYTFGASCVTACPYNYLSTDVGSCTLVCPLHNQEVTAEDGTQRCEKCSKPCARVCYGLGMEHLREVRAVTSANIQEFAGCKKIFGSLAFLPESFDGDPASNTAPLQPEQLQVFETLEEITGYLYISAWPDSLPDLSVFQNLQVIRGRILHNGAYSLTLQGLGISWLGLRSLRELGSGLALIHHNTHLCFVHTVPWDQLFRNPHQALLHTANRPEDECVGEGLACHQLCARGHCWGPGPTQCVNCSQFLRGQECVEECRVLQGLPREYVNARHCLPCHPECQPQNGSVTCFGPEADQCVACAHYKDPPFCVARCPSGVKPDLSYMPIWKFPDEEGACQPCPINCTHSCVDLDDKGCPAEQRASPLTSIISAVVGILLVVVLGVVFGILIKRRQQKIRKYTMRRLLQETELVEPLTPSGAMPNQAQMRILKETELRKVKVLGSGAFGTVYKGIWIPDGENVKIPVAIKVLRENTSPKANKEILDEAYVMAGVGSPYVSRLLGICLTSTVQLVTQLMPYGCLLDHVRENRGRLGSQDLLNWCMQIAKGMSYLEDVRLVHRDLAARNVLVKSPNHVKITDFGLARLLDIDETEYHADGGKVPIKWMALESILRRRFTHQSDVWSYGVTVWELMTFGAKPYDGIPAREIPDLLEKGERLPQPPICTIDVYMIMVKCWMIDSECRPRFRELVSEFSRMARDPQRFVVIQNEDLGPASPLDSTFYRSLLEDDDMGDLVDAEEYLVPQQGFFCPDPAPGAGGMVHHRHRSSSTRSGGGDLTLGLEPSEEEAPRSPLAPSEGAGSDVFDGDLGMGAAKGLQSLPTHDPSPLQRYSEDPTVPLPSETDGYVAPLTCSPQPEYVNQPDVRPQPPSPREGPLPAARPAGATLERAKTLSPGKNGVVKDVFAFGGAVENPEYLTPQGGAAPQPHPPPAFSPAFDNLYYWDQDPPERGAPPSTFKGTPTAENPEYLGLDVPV
Experimental: as §1, §2

A431 cells = experiment: Cell viability assay (CellTiter Glo); type: cell-based; settings: Homo sapiens, A-431; 72 hours; 1500 cells per well, 384-well; DMEM + 10% FBS
Experimental: (§3) Cells were treated with compounds, and cell viability was measured as a metric of kinase inhibition.
(§4) The Ba/F3 cell line is IL-3-dependent mouse cell line derived from the C3H mouse strain. Ba/F3 cell lines were engineered to express human ERBB2 or EGFR kinases, rendering the cells IL-3 independent. The lines were generated via retroviral transduction utilizing a Moloney murine leukemia virus (MMLV) promoter, and constructs are stably integrated into the cell genome.
(§5) Similarly, Ba/F3 cell lines engineered to express EGFR, ERBB2, or ERBB2 mutants were grown, harvested, counted and seeded at 3000 cells per well in 96-well plates for the data sets shown in Tables B3-B4, and seeded at 300 cells per well in 384-well plates for the data set shown in Table B5. A subset of wells contained media only (low control, “LC”).
(§6) Table B2 provides the growth media and number of cells seeded per well for the each cell line.
(§7) Compounds were dissolved in DMSO and serially diluted. Serially-diluted compound or a DMSO only control (high control, “HC”) was added to the plated cells in each well. […] The final proportion of DMSO never exceeded 0.1%.
(§8) Plates were placed in a 37° C., 5% CO2 incubator for 72 hours. Plates were then removed from the incubator and equilibrated for 15 minutes at room temperature. 40 IA of CellTiter Glo reagent (Promega) was added to measure the relative level of metabolically active cells by quantifying intracellular ATP concentrations. Plates were incubated for 30 minutes at room temperature, and luminescence was measured. Percent viability was normalized to a vehicle control only using the following formula: % viability=100×(LumSample−LumLC) (LumHC−LumLC). Graphical curves were fitted using a nonlinear regression model with a sigmoidal dose response.

BT-474 cells = experiment: Cell viability assay (CellTiter Glo); type: cell-based; settings: Homo sapiens, 72 hours, 2000 cells per well, 384-well, DMEM + 10% FBS
Experimental: as §3, §4, §5, §6, §7, §8

MDA-MB-175VII cells = experiment: Cell viability assay (CellTiter Glo); type: cell-based; settings: Homo sapiens, 72 hours, 2000 cells per well, 384-well, RPMI + 10% FBS
Experimental: as §3, §4, §5, §6, §7, §8

IC50 [1] [nM] | IC50 (ERBB2 (V777L)) [nM] | IC50 (ERBB2 (D769Y)) [nM] | IC50 (ERBB2 (P1170A)) [nM] | IC50 (A431 cells) [nM] | IC50 (BT-474 cells) [nM] | IC50 (MDA-MB-175VII cells) [nM] | Compound | GI50 (Ba/F3 EGFR wt) [nM]
23.1 | 4.3 | 13.7 | 3.99 | > 10000 | 41.8 | 89 | Cc1cc(Nc2ncnc3ccc(NC4=NC(C)(C)CO4)cc23)ccc1Oc1ccn2ncnc2c1 [Tucatinib, tucatinib, reference compound] | > 10000
10.3 | 1.38 | 1.56 | 0.68 | 1730 | 3.89 | 9 | CC#CC(=O)Nc1ccc2ncnc(Nc3ccc(Oc4ccn5ncnc5c4)c(C)c3)c2c1 [Compound 1, N-[4-[(3-methyl-4-[[1,2,4]triazolo[1,5-a]pyridin-7-yloxy]phenyl)amino]quinazolin-6-yl]but-2-ynamide] | 2750
7.05 |  |  |  |  |  |  | CC#CC(=O)Nc1cc2c(Nc3ccc(Oc4ccn5ncnc5c4)c(C)c3)ncnc2cc1OCCN(C)C [Compound 150, N-[7-[2-(dimethylamino)ethoxy]-4-[(3-methyl-4-[[1,2,4]triazolo[1,5-a]pyridin-7-yloxy]phenyl)amino]quinazolin-6-yl]but-2-ynamide] | 
